Assay results reported in ChEMBL document CHEMBL2202954, “The effect of PLC-γ2 inhibitors on the growth of human tumour cells” (2012).

How the values were obtained:
Type in all cases: functional
DU-145 = test: Cytotoxicity against human DU145 cells assessed as cellular growth at 10 uM by SRB assay
RPMI-8226 = test: Cytotoxicity against human RPMI8226 cells assessed as cellular growth at 10 uM by SRB assay
U-251 = test: Cytotoxicity against human U251 cells assessed as cellular growth at 10 uM by SRB assay
SN12C = test: Cytotoxicity against human SN12C cells assessed as cellular growth at 10 uM by SRB assay
SF-539 = test: Cytotoxicity against human SF539 cells assessed as cellular growth at 10 uM by SRB assay
CAKI-1 = test: Cytotoxicity against human Caki1 cells assessed as cellular growth at 10 uM by SRB assay
SF-295 = test: Cytotoxicity against human SF295 cells assessed as cellular growth at 10 uM by SRB assay
UACC-257 = test: Cytotoxicity against human UACC257 cells assessed as cellular growth at 10 uM by SRB assay
NCI-H460 = test: Cytotoxicity against human NCI-H460 cells assessed as cellular growth at 10 uM by SRB assay
Hs-578T = test: Cytotoxicity against human Hs578T cells assessed as cellular growth at 10 uM by SRB assay
SF-268 = test: Cytotoxicity against human SF268 cells assessed as cellular growth at 10 uM by SRB assay
MDA-MB-231 = test: Cytotoxicity against human MDA-MB-231 cells assessed as cellular growth at 10 uM by SRB assay
NCI-H522 = test: Cytotoxicity against human NCI-H522 cells assessed as cellular growth at 10 uM by SRB assay
NCI-H23 = test: Cytotoxicity against human NCI-H23 cells assessed as cellular growth at 10 uM by SRB assay
KM12 = test: Cytotoxicity against human KM12 cells assessed as cellular growth at 10 uM by SRB assay
786-0 = test: Cytotoxicity against human 786-0 cells assessed as cellular growth at 10 uM by SRB assay
SK-MEL-2 = test: Cytotoxicity against human SK-MEL-2 cells assessed as cellular growth at 10 uM by SRB assay
HOP-62 = test: Cytotoxicity against human HOP62 cells assessed as cellular growth at 10 uM by SRB assay
SNB-19 = test: Cytotoxicity against human SNB19 cells assessed as cellular growth at 10 uM by SRB assay
MCF7 = test: Cytotoxicity against human MCF7 cells assessed as cellular growth at 10 uM by SRB assay

Row | SMILES | Activity (DU-145) | Activity (RPMI-8226) | Activity (U-251) | Activity (SN12C) | Activity (SF-539) | Activity (CAKI-1) | Activity (SF-295) | Activity (UACC-257) | Activity (NCI-H460) | Activity (Hs-578T) | Activity (SF-268) | Activity (MDA-MB-231) | Activity (NCI-H522) | Activity (NCI-H23) | Activity (KM12) | Activity (786-0) | Activity (SK-MEL-2) | Activity (HOP-62) | Activity (SNB-19) | Activity (MCF7)
1 | COc1ccc2nc(NC(=O)c3ccc(F)cc3)sc2c1 | 105.68% | 87.06% | 98.75% | 112.11% | 97.47% | 79.13% | 54.56% | 97.45% | 19.56% | 114.71% | 106.57% | 116.29% | 75.43% | 85.96% | 93.29% | 96.69% | 143.55% | 108.23% | 109.05% | 70.13%
2 | O=C(Nc1nc2ccccc2s1)c1ccc(F)cc1 | 108.3% | 88.45% | 99.72% | 108.22% | 101.66% | 62.93% | 103.39% | 107.84% | 69.18% | 140.08% | 114.42% | 95.53% | 92.24% | 89.91% | 52.84% | 107.84% | 113.78% | 106.04% | 126.08% | 68.1%
3 | O=c1/c(=C/c2ccc(Cl)cc2Cl)sc2nc(-c3ccccc3)nn12 | 102.1% | 112.43% | 103.07% | 94.22% | 121.38% | 116.76% | 118.28% | 112.2% | 106.83% | 98.17% | 107.16% | 98.54% | 98.76% | 101.62% | 101.32% | 103.31% | 107.26% | 120.5% | 102.51% | 103.07%
4 | COc1cc(/C=c2/sc3nc4ccccc4n3c2=O)cc(I)c1O | 102.39% | 74.12% | 101.21% | 101.23% | 112.47% | 79.77% | 88.17% | 105.01% | 95.07% | 107.68% | 99.48% | 107.43% | 99.27% | 94.22% | 80.63% | 97.48% | 104.64% | 101.47% | 108.08% | 93.11%
5 | O=C(Nc1nc2ccc(Cl)cc2s1)c1ccc(Cl)cc1 | 114.57% | 95.05% | 94.55% | 122.51% | 88.34% | 81.52% | 87.02% | 94.31% | 98.55% | 98.57% | 112.46% | 98.56% | 99.64% | 91.71% | 102.62% | 101.53% | 111.04% | 103.16% | 125.32% | 99.61%
6 | O=C(Nc1nc2ccc(Cl)cc2s1)c1ccc(Cl)cc1Cl | 108.4% | 91.09% | 93.57% | 113.76% | 101.57% | 79.85% | 76.92% | 95.43% | 100.4% | 113.99% | 111.47% | 114.66% | 98.66% | 99% | 110.91% | 95.62% | 116.07% | 106.54% | 109.5% | 98.4%
7 | COc1cccc(C(=O)Nc2nc3ccc(Cl)cc3s2)c1 | 104.09% | 84.4% | 87.76% | 101.74% | 101.47% | 68.42% | 67.73% | 94.74% | 87.74% | 110.55% | 106.92% | 95.48% | 78.29% | 81.36% | 49.84% | 98.19% | 108.68% | 104.17% | 113.6% | 85.29%
8 | O=S(=O)(Oc1ccc(-c2cnc3ccccc3n2)cc1)c1ccc2ccccc2c1 | 104.01% | 89.09% | 104.05% | 92.04% | 119.65% | 105.66% | 102.68% | 114.11% | 96.28% | 105.04% | 104.06% | 103.12% | 86.38% | 100.37% | 101.08% | 96.4% | 107.17% | 104.1% | 99.88% | 103.49%
9 | Cc1ccc(S(=O)(=O)Oc2ccc(-c3cnc4ccccc4n3)cc2)cc1 | 114.58% | 88.46% | 89.92% | 108.92% | 113.49% | 92.87% | 89.7% | 102.87% | 97% | 110.2% | 118.59% | 111.87% | 93.02% | 96.23% | 105.85% | 96.77% | 127.78% | 114.36% | 123.73% | 98.34%
10 | O=C(Nc1ccc2oc(=O)ccc2c1)c1ccc(-c2ccc(Cl)c(Cl)c2)o1 | 92.43% | 70.14% | 92.91% | 86.83% | 90.55% | 87.9% | 102.01% | 97.36% | 100.41% | 145.42% | 85.02% | 86.89% | 70.34% | 97.86% | 73.78% | 88.1% | 102.15% | 109.12% | 101.4% | 86.24%
11 | O=S(=O)(Oc1ccc(-c2cnc3ccccc3n2)cc1)c1ccccc1 | 107.72% | 87.36% | 92.1% | 95.17% | 94.38% | 100.14% | 94.02% | 100.15% | 110.82% | 145.79% | 98.77% | 105.17% | 78.75% | 96.29% | 111.44% | 92.9% | 109.62% | 106.15% | 102.07% | 94.53%
